Results reported in ChEMBL document CHEMBL1201862, “PubChem BioAssay data set” (2004).
Calls of active or inactive are those of the source.

What was measured:
[1] = AlphaScreen signal interference compounds, dose response, artefact control for ARNT-TACC3 interaction inhibitor project, biochemical, luminescence, cherry-pick (AID 651705); assay type: functional;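 note: AlphaScreen bead proximity signal that flags compounds interfering with the detection technology; potency reflects signal decrease which marks the compound as an assay artifact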
[2] = Vero E6 cell cytotoxicity, dose response, cytotoxicity control for non-replicating M. tuberculosis project, secondary assay (AID 492998); assay type: functional, VeroE6; settings: Vero C1008
cells [3] = assay type: functional
[4] = THP-1 cell cytotoxicity, dose response, cytotoxicity control for non-replicating M. tuberculosis project (AID 489025); assay type: functional
[5] = target: Potassium voltage-gated channel subfamily KQT member 2 (Rattus norvegicus, UniProt O88943); test: KCNQ2 potassium channel inhibitors, dose response, cell-based, automated electrophysiology, set II, rat KCNQ2 (AID 588637); assay type: functional
Potassium voltage-gated channel subfamily KQT member 2, sequence (O88943 whole entry): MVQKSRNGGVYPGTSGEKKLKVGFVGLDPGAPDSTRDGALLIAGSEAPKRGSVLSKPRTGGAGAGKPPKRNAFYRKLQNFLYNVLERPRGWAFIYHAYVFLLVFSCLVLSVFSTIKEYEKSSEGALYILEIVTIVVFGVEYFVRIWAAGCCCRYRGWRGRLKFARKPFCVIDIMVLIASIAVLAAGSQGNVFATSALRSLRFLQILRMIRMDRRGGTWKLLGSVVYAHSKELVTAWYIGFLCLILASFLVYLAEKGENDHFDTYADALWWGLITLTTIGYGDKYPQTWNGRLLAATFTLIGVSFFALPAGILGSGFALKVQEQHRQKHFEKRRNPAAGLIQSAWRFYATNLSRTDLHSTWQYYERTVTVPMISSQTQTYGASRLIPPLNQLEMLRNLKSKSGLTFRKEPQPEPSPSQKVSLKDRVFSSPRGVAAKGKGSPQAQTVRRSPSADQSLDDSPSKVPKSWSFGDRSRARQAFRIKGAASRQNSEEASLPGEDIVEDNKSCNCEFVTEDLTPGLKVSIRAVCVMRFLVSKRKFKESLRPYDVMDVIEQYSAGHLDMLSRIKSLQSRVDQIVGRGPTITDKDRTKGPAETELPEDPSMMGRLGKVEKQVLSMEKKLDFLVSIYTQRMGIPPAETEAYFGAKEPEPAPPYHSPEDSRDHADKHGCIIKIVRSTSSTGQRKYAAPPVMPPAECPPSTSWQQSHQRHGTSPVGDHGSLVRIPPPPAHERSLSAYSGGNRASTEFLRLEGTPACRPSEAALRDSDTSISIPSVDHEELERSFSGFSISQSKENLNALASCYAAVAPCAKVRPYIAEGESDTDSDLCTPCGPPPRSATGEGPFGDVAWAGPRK

[6] = target: Tyrosine-protein phosphatase non-receptor type 11 (Homo sapiens, UniProt Q06124); test: SHP2 phosphatase inhibition, dose response, selectivity assay for STEP inhibitor project, biochemical (AID 602367); assay type: functional; settings: read-out: IC50_Mean
Tyrosine-protein phosphatase non-receptor type 11, sequence (Q06124 whole entry): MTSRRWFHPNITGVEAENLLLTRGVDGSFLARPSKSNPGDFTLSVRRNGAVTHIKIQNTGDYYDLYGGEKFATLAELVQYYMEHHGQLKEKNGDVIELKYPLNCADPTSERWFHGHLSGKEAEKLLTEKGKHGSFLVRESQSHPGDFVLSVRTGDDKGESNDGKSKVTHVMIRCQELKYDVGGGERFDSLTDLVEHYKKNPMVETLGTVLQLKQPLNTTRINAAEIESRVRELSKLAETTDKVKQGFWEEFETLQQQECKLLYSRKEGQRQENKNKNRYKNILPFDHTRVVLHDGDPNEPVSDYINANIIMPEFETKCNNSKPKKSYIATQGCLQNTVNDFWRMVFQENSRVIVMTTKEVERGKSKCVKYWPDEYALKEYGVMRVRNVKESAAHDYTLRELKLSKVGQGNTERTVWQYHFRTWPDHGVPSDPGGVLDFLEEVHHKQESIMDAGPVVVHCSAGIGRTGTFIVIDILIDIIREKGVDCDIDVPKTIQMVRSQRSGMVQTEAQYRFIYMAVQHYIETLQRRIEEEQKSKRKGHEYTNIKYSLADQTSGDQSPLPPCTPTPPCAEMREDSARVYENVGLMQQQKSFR

[7] = target: Tyrosine-protein phosphatase non-receptor type 5 (Homo sapiens, UniProt P54829); test: STEP phosphatase inhibitors, confirmation, biochemical, fluorescence intensity, uHTS hits (AID 602372); assay type: functional; settings: read-out: IC50_Mean
Tyrosine-protein phosphatase non-receptor type 5, sequence (P54829 whole entry): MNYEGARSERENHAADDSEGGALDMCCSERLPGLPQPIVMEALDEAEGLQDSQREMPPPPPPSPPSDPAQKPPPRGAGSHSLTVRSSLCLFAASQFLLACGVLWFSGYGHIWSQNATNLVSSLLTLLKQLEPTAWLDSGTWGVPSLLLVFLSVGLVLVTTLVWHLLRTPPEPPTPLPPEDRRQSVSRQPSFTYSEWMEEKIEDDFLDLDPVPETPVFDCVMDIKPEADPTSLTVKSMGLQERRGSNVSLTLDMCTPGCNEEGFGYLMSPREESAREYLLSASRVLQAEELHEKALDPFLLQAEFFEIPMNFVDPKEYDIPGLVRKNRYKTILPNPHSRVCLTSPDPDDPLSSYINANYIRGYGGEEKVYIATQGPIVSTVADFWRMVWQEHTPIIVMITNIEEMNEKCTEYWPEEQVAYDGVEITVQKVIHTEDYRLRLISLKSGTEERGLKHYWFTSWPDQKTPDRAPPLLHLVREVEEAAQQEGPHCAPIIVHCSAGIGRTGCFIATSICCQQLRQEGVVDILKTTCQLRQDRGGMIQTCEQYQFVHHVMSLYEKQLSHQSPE

[8] = target: Dual specificity protein phosphatase 3 (Homo sapiens, UniProt P51452); test: VHR phosphatase inhibition, dose response, selectivity assay for STEP inhibitor project, biochemical (AID 602374); assay type: functional; settings: read-out: IC50_Mean
Interleukin-8 [9] = target: T1, Interleukin-8 (Homo sapiens, UniProt P10145); test: Dose Response confirmation of uHTS small molecule hits for cystic fibrosis induced NFkb Inhibitors in a PAF-induced IL8 counterscreen.; assay type: functional; settings: read-out: IC50_Mean
T1 sequence (P10145 whole entry): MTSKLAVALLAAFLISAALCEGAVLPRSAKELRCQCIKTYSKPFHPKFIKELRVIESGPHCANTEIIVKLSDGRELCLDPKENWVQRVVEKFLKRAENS

[10] = target: T2, Rac GTPase-activating protein 1 (Homo sapiens, UniProt Q9H0H5); test: MgcRacGAP GTPase-activating activity inhibitors, confirmation, biochemical, ADP Hunter fluorescence, primary and confirmatory (AID 624330); assay type: functional
T2 sequence (Q9H0H5 whole entry): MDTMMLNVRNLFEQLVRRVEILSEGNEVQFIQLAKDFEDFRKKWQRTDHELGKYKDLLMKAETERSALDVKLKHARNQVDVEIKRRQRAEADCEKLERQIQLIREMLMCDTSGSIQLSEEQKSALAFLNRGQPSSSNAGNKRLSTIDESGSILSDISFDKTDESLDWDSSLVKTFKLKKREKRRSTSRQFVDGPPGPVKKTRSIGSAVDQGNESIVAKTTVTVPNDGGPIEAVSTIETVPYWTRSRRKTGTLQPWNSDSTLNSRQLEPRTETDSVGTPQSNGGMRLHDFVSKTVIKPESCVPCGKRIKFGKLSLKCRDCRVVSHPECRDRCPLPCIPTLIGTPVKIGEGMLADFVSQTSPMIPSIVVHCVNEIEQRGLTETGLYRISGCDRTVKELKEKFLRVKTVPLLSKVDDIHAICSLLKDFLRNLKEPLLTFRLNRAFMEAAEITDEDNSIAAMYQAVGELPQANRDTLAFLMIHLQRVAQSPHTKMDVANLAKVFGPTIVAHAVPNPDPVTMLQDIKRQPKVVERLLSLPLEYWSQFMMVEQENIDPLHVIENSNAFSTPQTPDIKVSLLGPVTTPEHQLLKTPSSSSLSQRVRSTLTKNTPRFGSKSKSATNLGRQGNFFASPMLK

Interleukin-8 [11] = target: T1, Interleukin-8; test: Dose Response confirmation of uHTS small molecule hits for cystic fibrosis induced NFkb Inhibitors in a TNFa-induced IL8 counterscreen.; assay type: functional; settings: read-out: IC50_Mean
[12] = target: Mitochondrial peptide methionine sulfoxide reductase (Bos taurus, UniProt P54149); assay type: functional;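 note: absorbance read-out, biochemical high-throughput dose-response screen for MsrA inhibitors, confirmatory; recombinant bovine MsrA coupled to E. coli TrxB with NADPH and selenocystamine; potency is for inhibitors of MsrA activity on DMSO substrate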
Mitochondrial peptide methionine sulfoxide reductase, sequence (P54149 whole entry): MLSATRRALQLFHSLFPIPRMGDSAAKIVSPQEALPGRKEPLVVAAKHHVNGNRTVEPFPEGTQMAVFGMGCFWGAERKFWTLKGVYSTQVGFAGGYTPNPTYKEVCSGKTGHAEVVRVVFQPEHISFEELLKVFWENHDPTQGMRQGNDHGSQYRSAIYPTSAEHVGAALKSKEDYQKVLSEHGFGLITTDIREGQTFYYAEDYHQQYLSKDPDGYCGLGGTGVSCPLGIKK

[13] = StAR promoter reporter inhibition counter-screen, dose response, counter-screen for LRH-1 inverse agonist project, cell-based, luminescence, luciferase reporter (AID 651969); assay type: functional
Steroidogenic factor 1 = Steroidogenic factor 1 (Homo sapiens, UniProt Q13285); test: Counterscreen for inverse agonists of the liver receptor homolog-1 (LRH-1; NR5A2): Luminescence-based cell-based high throughput dose response assay to identify inverse agonists of the Steroidogenic Factor 1 Nuclear Receptor (SF1; NR5A1).; assay type: functional
Steroidogenic factor 1, sequence (Q13285 whole entry): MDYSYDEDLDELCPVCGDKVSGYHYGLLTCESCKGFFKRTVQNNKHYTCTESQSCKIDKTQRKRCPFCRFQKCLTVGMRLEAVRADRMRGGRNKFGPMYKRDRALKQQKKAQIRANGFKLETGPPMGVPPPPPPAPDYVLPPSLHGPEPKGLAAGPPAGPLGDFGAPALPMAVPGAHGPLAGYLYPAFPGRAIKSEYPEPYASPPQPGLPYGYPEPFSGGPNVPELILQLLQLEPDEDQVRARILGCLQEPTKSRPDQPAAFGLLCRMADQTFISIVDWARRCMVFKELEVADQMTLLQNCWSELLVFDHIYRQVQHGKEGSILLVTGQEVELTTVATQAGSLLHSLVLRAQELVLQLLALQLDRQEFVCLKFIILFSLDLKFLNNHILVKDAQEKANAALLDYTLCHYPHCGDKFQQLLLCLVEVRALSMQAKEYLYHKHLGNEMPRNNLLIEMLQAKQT

[14] = target: Nuclear receptor subfamily 5 group A member 2 (Homo sapiens, UniProt O00482); assay type: functional, cell-based;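 note: HEK293T cells transfected with LRH-1 and a StAR promoter luciferase reporter; potency for inhibitors that lower LRH-1 driven reporter light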
Nuclear receptor subfamily 5 group A member 2, sequence (O00482 whole entry): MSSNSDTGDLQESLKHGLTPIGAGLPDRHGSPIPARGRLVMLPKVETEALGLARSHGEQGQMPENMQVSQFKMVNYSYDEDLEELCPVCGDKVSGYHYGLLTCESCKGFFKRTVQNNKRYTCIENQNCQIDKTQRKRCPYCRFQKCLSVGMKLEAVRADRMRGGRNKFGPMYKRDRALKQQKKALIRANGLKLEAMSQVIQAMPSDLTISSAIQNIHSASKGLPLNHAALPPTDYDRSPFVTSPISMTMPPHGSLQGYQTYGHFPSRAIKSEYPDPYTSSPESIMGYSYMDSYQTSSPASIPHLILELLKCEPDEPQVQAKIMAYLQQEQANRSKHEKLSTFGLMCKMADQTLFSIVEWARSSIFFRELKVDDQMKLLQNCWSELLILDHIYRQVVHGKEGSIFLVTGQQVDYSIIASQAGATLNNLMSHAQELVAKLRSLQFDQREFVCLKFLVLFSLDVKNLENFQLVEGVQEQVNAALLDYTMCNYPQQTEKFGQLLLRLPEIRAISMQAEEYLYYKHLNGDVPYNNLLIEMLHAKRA

Melanocortin receptor 4 = Melanocortin receptor 4 (Homo sapiens, UniProt P32245); test: MC4R antagonist potency on cAMP, dose response, cell-based, TR-FRET, biased antagonists (AID 602298); assay type: functional;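 note: antagonist potency against agonist-stimulated cAMP production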
Melanocortin receptor 4, sequence (P32245 whole entry): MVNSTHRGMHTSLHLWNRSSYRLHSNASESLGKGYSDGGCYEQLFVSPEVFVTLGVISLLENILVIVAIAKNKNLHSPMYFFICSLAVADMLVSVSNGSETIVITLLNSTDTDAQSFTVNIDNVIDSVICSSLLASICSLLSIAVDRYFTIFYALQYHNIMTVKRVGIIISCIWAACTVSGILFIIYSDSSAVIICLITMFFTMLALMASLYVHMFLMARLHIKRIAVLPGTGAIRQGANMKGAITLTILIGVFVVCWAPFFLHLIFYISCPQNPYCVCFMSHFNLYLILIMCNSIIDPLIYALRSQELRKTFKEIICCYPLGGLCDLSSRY

[15] = target: T3, Heat shock factor protein 1 (Mus musculus, UniProt P38532); test: HSF1 potentiators in luciferase reporter cells, confirmation, cell-based, NIH3T3, luminescence, dose retest (AID 435004); assay type: functional;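 note: stress induced by proteasome inhibitor MG132 added 30 min after compound; luciferase reporter driven by HSF1 response element in NIH3T3 cells; actives raise luminescence as potentiators of the MG132 stress response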
T3 sequence (P38532 whole entry): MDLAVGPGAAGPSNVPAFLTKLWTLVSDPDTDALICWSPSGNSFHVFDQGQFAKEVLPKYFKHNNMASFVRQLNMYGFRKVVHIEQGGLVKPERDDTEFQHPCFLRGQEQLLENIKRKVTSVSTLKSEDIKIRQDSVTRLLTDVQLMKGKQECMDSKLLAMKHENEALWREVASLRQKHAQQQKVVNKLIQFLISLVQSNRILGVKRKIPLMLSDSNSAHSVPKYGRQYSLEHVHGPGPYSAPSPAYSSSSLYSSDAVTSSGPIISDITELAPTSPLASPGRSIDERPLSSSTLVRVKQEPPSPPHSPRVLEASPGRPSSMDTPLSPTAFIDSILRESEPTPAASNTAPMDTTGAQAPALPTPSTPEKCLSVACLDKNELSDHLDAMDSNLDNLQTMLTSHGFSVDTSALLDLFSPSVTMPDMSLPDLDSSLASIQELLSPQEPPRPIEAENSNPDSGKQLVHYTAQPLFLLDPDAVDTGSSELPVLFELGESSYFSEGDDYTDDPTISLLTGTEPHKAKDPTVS

[16] = nonselective inhibitors of cellular cAMP signaling, dose response, counter-screen for MC4R biased antagonist project, cell-based, TR-FRET cAMP detection (AID 602305); assay type: functional;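 note: U2OS cells stimulated with forskolin near its EC80 as the cAMP inducer; potency is for inhibition of forskolin-stimulated cAMP signaling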
Beta-galactosidase = Beta-galactosidase (Escherichia coli, UniProt Q8VNN2); test: Dose response counterscreen for EBI2 assay utilizing the enzyme, b-galactosidase.; assay type: functional
Beta-galactosidase, sequence (Q8VNN2 whole entry): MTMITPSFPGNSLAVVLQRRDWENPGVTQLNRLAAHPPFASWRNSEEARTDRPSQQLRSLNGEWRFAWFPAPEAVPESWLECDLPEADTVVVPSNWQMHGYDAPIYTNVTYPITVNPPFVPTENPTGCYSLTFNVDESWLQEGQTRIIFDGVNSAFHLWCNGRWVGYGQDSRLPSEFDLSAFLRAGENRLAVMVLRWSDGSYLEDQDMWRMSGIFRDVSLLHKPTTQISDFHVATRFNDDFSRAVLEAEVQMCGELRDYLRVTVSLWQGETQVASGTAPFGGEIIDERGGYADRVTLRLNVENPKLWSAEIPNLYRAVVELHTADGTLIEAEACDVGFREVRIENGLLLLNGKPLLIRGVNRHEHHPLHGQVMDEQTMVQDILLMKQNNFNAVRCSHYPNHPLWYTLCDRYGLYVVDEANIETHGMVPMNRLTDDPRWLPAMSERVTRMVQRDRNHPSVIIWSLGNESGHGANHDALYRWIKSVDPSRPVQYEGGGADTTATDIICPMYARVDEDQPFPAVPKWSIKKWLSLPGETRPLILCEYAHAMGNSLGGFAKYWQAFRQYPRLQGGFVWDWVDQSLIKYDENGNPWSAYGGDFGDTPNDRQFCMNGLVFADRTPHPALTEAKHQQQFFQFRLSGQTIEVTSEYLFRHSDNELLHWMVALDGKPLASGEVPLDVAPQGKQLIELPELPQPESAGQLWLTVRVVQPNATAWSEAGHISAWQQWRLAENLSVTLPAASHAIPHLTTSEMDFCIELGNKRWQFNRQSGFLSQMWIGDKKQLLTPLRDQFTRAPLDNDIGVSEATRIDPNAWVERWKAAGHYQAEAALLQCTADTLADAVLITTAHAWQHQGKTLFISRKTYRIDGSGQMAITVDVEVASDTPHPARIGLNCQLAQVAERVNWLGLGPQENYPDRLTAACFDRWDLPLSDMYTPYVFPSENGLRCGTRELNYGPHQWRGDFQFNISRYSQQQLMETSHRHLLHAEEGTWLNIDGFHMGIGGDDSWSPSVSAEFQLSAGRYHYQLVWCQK

[17] = target: T4, Low molecular weight phosphotyrosine protein phosphatase (Homo sapiens, UniProt P24666); assay type: functional; settings: read-out: IC50_Mean;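 note: Dose-response confirmation assay measuring inhibition of LMPTP enzyme activity by fluorescence intensity read-out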
T4 sequence (P24666 whole entry): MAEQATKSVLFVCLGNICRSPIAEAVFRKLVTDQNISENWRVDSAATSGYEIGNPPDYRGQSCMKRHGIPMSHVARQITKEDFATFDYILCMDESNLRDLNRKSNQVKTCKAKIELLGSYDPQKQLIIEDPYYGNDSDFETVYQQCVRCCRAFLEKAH

[18] = target: T5, Tyrosine-protein phosphatase non-receptor type 22 (Homo sapiens, UniProt Q9Y2R2); test: LYP phosphatase inhibition for selectivity, dose response, selectivity assay for LMPTP inhibitor project, biochemical, fluorescence, LYP catalytic domain (AID 652006); assay type: functional; settings: read-out: IC50_Mean
T5 sequence (Q9Y2R2 whole entry): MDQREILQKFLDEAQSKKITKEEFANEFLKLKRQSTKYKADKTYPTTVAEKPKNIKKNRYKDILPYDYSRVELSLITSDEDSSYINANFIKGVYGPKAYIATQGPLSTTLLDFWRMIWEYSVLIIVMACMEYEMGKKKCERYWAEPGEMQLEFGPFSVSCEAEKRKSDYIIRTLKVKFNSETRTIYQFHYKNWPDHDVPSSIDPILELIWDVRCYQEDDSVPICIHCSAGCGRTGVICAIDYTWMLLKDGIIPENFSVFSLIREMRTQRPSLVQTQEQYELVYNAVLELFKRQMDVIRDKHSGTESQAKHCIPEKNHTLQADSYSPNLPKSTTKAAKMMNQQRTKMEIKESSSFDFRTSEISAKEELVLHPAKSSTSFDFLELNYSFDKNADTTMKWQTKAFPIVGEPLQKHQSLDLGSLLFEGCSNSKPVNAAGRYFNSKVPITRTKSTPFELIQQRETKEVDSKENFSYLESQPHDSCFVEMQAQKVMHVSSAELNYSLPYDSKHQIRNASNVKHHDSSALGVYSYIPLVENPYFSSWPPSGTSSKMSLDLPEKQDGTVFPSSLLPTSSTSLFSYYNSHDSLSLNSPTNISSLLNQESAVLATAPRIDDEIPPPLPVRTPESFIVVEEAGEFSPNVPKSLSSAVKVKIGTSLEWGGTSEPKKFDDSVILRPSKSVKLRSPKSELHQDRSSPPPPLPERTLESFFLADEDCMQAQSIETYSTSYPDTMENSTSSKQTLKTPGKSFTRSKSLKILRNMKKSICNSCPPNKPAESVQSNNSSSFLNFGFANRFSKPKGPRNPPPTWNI

cells [19] = assay type: functional, cell-based
[20] = target: SWI/SNF-related matrix-associated actin-dependent regulator of chromatin subfamily A member 2 (Homo sapiens, UniProt P51531); test: Luminescence-based cell-based high throughput dose response assay to identify activators of the function of SWI/SNF related, matrix associated, actin dependent regulator of chromatin, subfamily a, member 2 (SMARCA2, BRM).; assay type: functional
[21] = Counterscreen for activators of the function of SWI/SNF related, matrix associated, actin dependent regulator of chromatin, subfamily a, member 2 (SMARCA2, BRM): Luminescence-based cell-based high throughput dose response assay to identify non-selective compounds using the VP16 reporter assay.; assay type: functional
cells [22] = assay type: functional, cell-based; remark: listed apart in the source
[23] = target: DNA (cytosine-5)-methyltransferase 1 (Homo sapiens, UniProt P26358); test: DNMT1 methyltransferase inhibitors, confirmation, biochemical, fluorescent molecular beacon (AID 602386); assay type: functional
INS1 = test: beta cell apoptosis inhibitors, cytokine rescue, dose response, luminescence, retest (AID 449756); assay type: functional, cell-based; settings: Rattus norvegicus;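 note: cell death triggered by IL-1 beta plus TNF-alpha plus IFN-gamma mixture; protective hits raise ATP signal compared with cytokine alone wells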
[24] = target: T6, Aryl hydrocarbon receptor (Homo sapiens, UniProt P35869); settings: Potency;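 note: confirmatory quantitative high-throughput screen measuring activation of the AhR signaling pathway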
T6 sequence (P35869 whole entry): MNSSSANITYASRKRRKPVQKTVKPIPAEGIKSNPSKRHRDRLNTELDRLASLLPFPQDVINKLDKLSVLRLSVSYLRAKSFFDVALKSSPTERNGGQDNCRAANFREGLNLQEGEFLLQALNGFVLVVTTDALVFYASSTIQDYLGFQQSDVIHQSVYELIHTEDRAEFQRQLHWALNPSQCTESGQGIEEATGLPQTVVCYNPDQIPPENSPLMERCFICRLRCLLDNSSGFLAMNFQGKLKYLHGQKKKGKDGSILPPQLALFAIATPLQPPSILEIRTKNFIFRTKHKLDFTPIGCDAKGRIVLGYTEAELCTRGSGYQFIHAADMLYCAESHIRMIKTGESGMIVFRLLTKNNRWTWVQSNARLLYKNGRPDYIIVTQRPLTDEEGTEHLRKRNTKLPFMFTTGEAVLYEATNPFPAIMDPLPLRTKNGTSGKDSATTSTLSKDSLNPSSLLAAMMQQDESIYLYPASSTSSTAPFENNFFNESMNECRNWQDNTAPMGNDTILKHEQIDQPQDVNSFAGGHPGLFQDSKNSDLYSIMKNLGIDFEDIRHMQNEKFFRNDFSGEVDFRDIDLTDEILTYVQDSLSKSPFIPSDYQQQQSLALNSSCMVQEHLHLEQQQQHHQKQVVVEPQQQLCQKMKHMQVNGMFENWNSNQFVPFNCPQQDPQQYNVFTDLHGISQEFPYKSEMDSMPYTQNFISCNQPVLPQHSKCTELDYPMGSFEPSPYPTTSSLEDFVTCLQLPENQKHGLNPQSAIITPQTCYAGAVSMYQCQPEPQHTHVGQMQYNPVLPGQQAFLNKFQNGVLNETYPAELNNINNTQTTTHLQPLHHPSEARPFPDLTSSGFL

[25] = target: Mitogen-activated protein kinase 12 (Homo sapiens, UniProt P53778); assay type: functional;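 note: measured as one member of a kinome-wide kinase profiling panel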
Mitogen-activated protein kinase 12, sequence (P53778 whole entry): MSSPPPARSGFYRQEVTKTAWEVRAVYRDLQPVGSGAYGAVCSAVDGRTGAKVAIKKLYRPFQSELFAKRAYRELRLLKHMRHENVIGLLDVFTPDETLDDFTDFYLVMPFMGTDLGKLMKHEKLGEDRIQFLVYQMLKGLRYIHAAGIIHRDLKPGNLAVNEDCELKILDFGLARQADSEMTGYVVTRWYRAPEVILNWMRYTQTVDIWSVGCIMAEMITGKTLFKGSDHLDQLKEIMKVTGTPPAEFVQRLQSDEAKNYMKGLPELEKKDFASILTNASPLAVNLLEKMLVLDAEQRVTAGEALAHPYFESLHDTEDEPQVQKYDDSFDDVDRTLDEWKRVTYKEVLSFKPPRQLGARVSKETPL

[26] = target: Testis-specific serine/threonine-protein kinase 2 (Homo sapiens, UniProt Q96PF2); assay type: functional;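 note: part of the Navigating the Kinome panel, target entry STK22B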
[27] = target: Cell division cycle 7-related protein kinase (Homo sapiens, UniProt O00311); assay type: functional;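 note: value obtained from a kinome-wide kinase panel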

SMILES: c1ccc(-c2nc3ccccn3c2NC2CCCC2)nc1
- AC50 [1]: 87.6 µM (active)
- CC50 [2]: > 20 µM (active)
- IC50 (cells [3]): 4.27 µM (active)
- CC50 [4]: 28.8 µM (active)

SMILES: Cc1ccc2nc(-c3ccccc3)cc(C(=O)N3CC(C)OC(C)C3)c2c1 (stereo unspecified)
- IC50 [5]: 0.0681 µM (active)

SMILES: CCOC(=O)N1CCC(N(CCN(C)C)C(=S)Nc2ccc(Oc3ccccc3)cc2)CC1
- IC50 [6]: 3.17 µM (active)
- IC50 [7]: 6.93 µM (active)
- IC50 [8]: 0.5 µM (active)

SMILES: COc1ccc(-c2c[nH]nc2-c2ccc(O)cc2O)cc1
- IC50 (Interleukin-8 [9]): 6.94 µM (active)
- IC50 [10]: 43.9 µM (active)
- IC50 (Interleukin-8 [11]): 2.62 µM (active)

SMILES: O=C(NCCc1ccccc1)c1ccc(=O)oc1
- IC50 [12]: 144 µM (inactive)

SMILES: CC(=O)c1ccc(OC(C)C(=O)OCC(=O)NCCc2ccccc2)cc1 (stereo unspecified)
- IC50 [13]: 35.9 µM (inactive)
- IC50 (Steroidogenic factor 1): 8.19 µM (active)
- IC50 [14]: 9.39 µM (active)

SMILES: CCOC(=O)c1ccc(/N=c2\sc(C(=O)OC)cc(=O)n2-c2ccc(C(=O)OCC)cc2)cc1
- IC50 (Melanocortin receptor 4): > 64.6 µM (inactive)
- EC50 [15]: 3.42 µM (active)
- IC50 [16]: > 64.6 µM (inactive)
- IC50 (Beta-galactosidase): > 80 µM (inactive)

SMILES: CC1C(=O)N(Cc2cn(Cc3ccco3)nn2)CCS(=O)(=O)N1Cc1ccc(-c2cccnc2)cc1 (stereo unspecified)
- IC50 [17]: 15.2 µM (active)
- IC50 [18]: 26.6 µM (inactive)

SMILES: CCN(CC)CCOc1ccc2c(c1)C(=NO)c1cc(OCCN(CC)CC)ccc1-2
- EC50 (cells [19]): > 350 µM (not active)
- EC50 [20]: 11.4 µM (inactive)
- EC50 [21]: > 91.1 µM (inactive)
- EC50 (cells [22]): > 350 µM (not active)
- IC50 [23]: > 99 µM (inactive)
- AC50 (INS1): 5.22 µM (active)

SMILES: Cc1ccccc1C(=O)Nc1cccc(OC(C)C)c1 [MEPRONIL]
- AC50 [24]: 28.2 µM (inconclusive)

SMILES: C[S+]([O-])c1ccc(-c2nc(-c3ccncc3)c(-c3ccc(F)cc3)[nH]2)cc1 (stereo unspecified) [SB-203580]
- Ki [25]: > 6.31 µM (inactive)
- Ki [26]: > 1.58 µM (inactive)
- Ki [27]: > 1.26 µM (inactive)
